Assay results as given in US5750648A, “Retroviral protease inhibitors and combinations thereof” (G.D. Searle & Co., priority 1994, dated 1998).
Structures can show the parent of a compound that is named as a salt.

Assays:
HIV protease = HIV protease (Human immunodeficiency virus type 1 group M subtype B, UniProt P04585); experiment: HIV protease enzyme assay (fluorescent substrate 2-aminobenzoyl-Ile-Nle-Phe(p-NO2)-Gln-ArgNH2); format: biochemical; settings: for IC50: concentration at which the inhibitor reduces enzyme activity by 50%, enzyme about 12.3 nanomolar, substrate about 80 μM, pH 6.4
Description: The compounds of the present invention are advantageously effective HIV protease inhibitors. Utilizing an enzyme assay as described below, the compounds set forth in the examples herein disclosed inhibited the HIV enzyme. The preferred compounds of the present invention and their calculated IC50 (the concentration at which the inhibitor compound reduces enzyme activity by 50%) values are shown in Table 2.
The enzyme method is as follows. The substrate is 2-aminobenzoyl-Ile-Nle-Phe(p-NO2)-Gln-ArgNH2. The positive control is MVT-101 (Miller, M. et al, Science, 246, 1149 (1989)). The assay buffer is 20 mM sodium phosphate, pH 6.4, 20% glycerol, 1 mM EDTA, 1 mM DTT and 0.1% CHAPS. The substrate is dissolved in DMSO, then diluted 10 fold in assay buffer. Final substrate concentration in the assay is about 80 μM. HIV protease is diluted in the assay buffer to a final enzyme concentration of about 12.3 nanomolar, based on a molecular weight of 10,780.
The final concentration of DMSO is about 14% and the final concentration of glycerol is about 18%. The test compound is dissolved in DMSO and diluted in DMSO to ten times (10×) the test concentration. Ten microliters (10 μL) of the enzyme preparation is added, the materials mixed and then the mixture is incubated at ambient temperature for 15 minutes. The enzyme reaction is initiated by the addition of 40 μL of substrate. The increase in fluorescence is monitored at 4 time points (0, 8, 16 and 24 minutes) at ambient temperature. Each assay is carried out in duplicate wells.

HIV-1 in CEM cells = experiment: CEM cell assay, HIV inhibition in acutely infected cells (MTT); format: cell-based; settings: Human immunodeficiency virus 1, CCRF-CEM, 168 h; HIV-1 infected CEM cells, 7 days
Experimental: The effectiveness of selected compounds of the present invention were determined in the above-described enzyme assay and in a CEM cell assay. The HIV inhibition assay method of acutely infected cells is an automated tetrazolium based calorimetric assay essentially that reported by Pauwles et al, J. Virol. Methods 20, 309-321 (1988). Assays were performed in 96-well tissue culture plates. CEM cells, a CD4+ cell line, were grown in RPMI-1640 medium (Gibco) supplemented with a 10% fetal calf serum and were then treated with polybrene (2 μg/ml). An 80 μl volume of medium containing 1×10^4 cells was dispensed into each well of the tissue culture plate. To each well was added a 100 μl volume of test compound dissolved in tissue culture medium (or medium without test compound as a control) to achieve the desired final concentration and the cells were incubated at 37° C. for 1 hour. A frozen culture of HIV-1 was diluted in culture medium to a concentration of […] (TCID50=the dose of virus that infects 50% of cells in tissue culture), and a 20 μL volume of the virus sample (containing 1000 TCID50 of virus) was added to wells containing test compound and to wells containing only medium (infected control cells). Several wells received culture medium without virus (uninfected control cells). Likewise, the intrinsic toxicity of the test compound was determined by adding medium without virus to several wells containing test compound. In summary, the tissue culture plates contained the following experiments: In experiments 2 and 4 the final concentrations of test compounds were 1, 10, 100 and 500 μg/ml. Either azidothymidine (AZT) or dideoxyinosine (ddI) was included as a positive drug control. […] DMSO was added to all control wells at an appropriate concentration. Following the addition of virus, cells were incubated at 37° C. in a humidified, 5% CO2 atmosphere for 7 days. Test compounds could be added on days 0, 2 and 5 if desired. On day 7, post-infection, the cells in each well were resuspended and a 100 μl sample of each cell suspension was removed for assay. A 20 μL volume of a 5 mg/ml solution of 3-(4,5-dimethylthiazol-2-yl)-2,5-diphenyltetrazolium bromide (MTT) was added to each 100 μL cell suspension, and the cells were incubated for 4 hours at […] in a 5% CO2 environment. […] To each sample was added 100 μl of 10% sodium dodecylsulfate in 0.01N HCl to lyse the cells, and samples were incubated overnight. The absorbance at 590 nm was determined for each sample using a Molecular Devices microplate reader. Absorbance values for each set of wells is compared to assess viral control infection, uninfected control cell response as well as test compound by cytotoxicity and antiviral efficacy.

IC50 (HIV protease)	EC50 (HIV-1 in CEM cells)	Compound	inhibition at 10 µM (HIV protease; @ 10 μM, read-out: inhibition of HIV protease (IC50))
14 nM	–	CNCC(=O)N[C@H](C(=O)N[C@@H](Cc1ccccc1)[C@H](O)CN(CCC(C)C)C(=O)NC(C)(C)C)C(C)(C)SC [5 (Part I), (2R, 3S)-3-(N-methylaminoacetyl-S-methyl-L-penicillaminyl)amido-1-[N-isoamyl-N-(tert-butylcarbamoyl)]amino-4-phenyl-2-butanol]	–
14 nM	66 nM	CC[C@H](C)[C@H](NC(=O)CN(C)C)C(=O)N[C@@H](Cc1ccccc1)[C@H](O)CN(CCC(C)C)C(=O)NC(C)(C)C [Example 3, (2R,3S)-3-(N,N-dimethylaminoacetyl-L-isoleucinyl)amido-1-[N-isoamyl-N-(tert-butylcarbamoyl)]amino-4-phenyl-2-butanol]	–
14 nM	0.034 µg/mL	CC(C)CCN(C[C@@H](O)[C@H](Cc1ccccc1)NC(=O)[C@@H](NC(=O)[C@H](C)N(C)C(=O)OCc1ccccc1)C(C)(C)C)C(=O)NC(C)(C)C [Example 13, (2R, 3S)-3-(N-benzyloxycarbonyl-N-methyl-L-alaninyl-L-tert-butylglycinyl)amino-1-[N-isoamyl-N-(tert-butylcarbamoyl)]amino-4-phenyl-2-butanol]	–
8 nM	0.096 µg/mL	CN[C@@H](C)C(=O)N[C@H](C(=O)N[C@@H](Cc1ccccc1)[C@H](O)CN(CCC(C)C)C(=O)NC(C)(C)C)C(C)(C)C [Example 14, (2R, 3S)-3-(N-methyl-L-alaninyl-L-tert-butylglycinyl)amino-1-[N-isoamyl-N-(tert-butylcarbamoyl)]amino-4-phenyl-2-butanol]	–
70 nM	–	CC(C)CCN(C[C@@H](O)[C@H](Cc1ccccc1)NC(=O)[C@@H](NC(=O)[C@@H](C)N(C)C(=O)OCc1ccccc1)C(C)(C)C)C(=O)NC(C)(C)C [Example 15, (2R, 3S)-3-(N-benzyloxycarbonyl-N-methyl-D-alaninyl-L-tert-butylglycinyl)amino-1-[N-isoamyl-N-(tert-butylcarbamoyl)]amino-4-phenyl-2-butanol]	–
18 nM	0.059 µg/mL	CN[C@H](C)C(=O)N[C@H](C(=O)N[C@@H](Cc1ccccc1)[C@H](O)CN(CCC(C)C)C(=O)NC(C)(C)C)C(C)(C)C [Example 16, (2R, 3S)-3-(N-methyl-D-alaninyl-L-tert-butylglycinyl)amino-1-[N-isoamyl-N-(tert-butylcarbamoyl)]amino-4-phenyl-2-butanol]	–
10 nM	0.038 µg/mL	CC(C)CCN(C[C@@H](O)[C@H](Cc1ccccc1)NC(=O)[C@@H](NC(=O)CN)C(C)(C)C)C(=O)NC(C)(C)C [Example 18, (2R, 3S)-3-(glycinyl-L-tert-butylglycinyl)amino-1-[N-isoamyl-N-(tert-butylcarbamoyl)]amino-4-phenyl-2-butanol Hydrochloride Salt]	–
2200 nM	–	CC(C)CCN(C[C@@H](O)[C@H](Cc1ccccc1)NC(=O)[C@@H](NC(=O)[C@@H]1CCCN1C(=O)OCc1ccccc1)C(C)(C)C)C(=O)NC(C)(C)C [Example 19, (2R, 3S)-3-(N-benzyloxycarbonyl-L-prolyl-L-tert-butylglycinyl) amino-1-[N-isoamyl-N-(tert-butylcarbamoyl)]amino-4-phenyl-2-butanol]	–
9 nM	–	CC(C)CCN(C[C@@H](O)[C@H](Cc1ccccc1)NC(=O)[C@@H](NC(=O)[C@@H]1CCCN1)C(C)(C)C)C(=O)NC(C)(C)C [Example 20, (2R, 3S)-3-(L-prolyl-L-tert-butylglycinyl)amino-1-[N-isoamyl-N-(tert-butylcarbamoyl)]amino-4-phenyl-2-butanol]	–
–	–	CC(C)CCN(C[C@@H](O)[C@H](Cc1ccccc1)NC(=O)[C@@H](NC(=O)[C@@H]1CCCN1C(=O)OC(C)(C)C)C(C)(C)C)C(=O)NC(C)(C)C [Example 21, (2R, 3S)-3-(N-tert-butoxycarbonyl-L-prolyl-L-tert-butylglycinyl) amino-1-[N-isoamyl-N-(tert-butylcarbamoyl)]amino-4-phenyl-2-butanol]	61%
370 nM	–	CC[C@H](C)[C@H](NC(=O)[C@@H](C)N(C)C(=O)OCc1ccccc1)C(=O)N[C@@H](Cc1ccccc1)[C@H](O)CN(CCC(C)C)C(=O)NC(C)(C)C [Example 22, (2R, 3S)-3-(N-benzyloxycarbonyl-N-methyl-D-alaninyl-L-isoleucinyl)amino-1-[N-isoamyl-N-(tert-butylcarbamoyl)]amino-4-phenyl-2-butanol]	–
79 nM	–	CC[C@H](C)[C@H](NC(=O)[C@@H](C)NC)C(=O)N[C@@H](Cc1ccccc1)[C@H](O)CN(CCC(C)C)C(=O)NC(C)(C)C [Example 23, (2R, 3S)-3-(N-methyl-D-alaninyl-L-isoleucinyl)amino-1-[N-isoamyl-N-(tert-butylcarbamoyl)]amino-4-phenyl-2-butanol]	–
520 nM	–	CC[C@H](C)[C@H](NC(=O)[C@@H]1CCCN1C(=O)OCc1ccccc1)C(=O)N[C@@H](Cc1ccccc1)[C@H](O)CN(CCC(C)C)C(=O)NC(C)(C)C [Example 24, (2R, 3S)-3-(N-benzyloxycarbonyl-L-prolyl-L-isoleucinyl)amino-1-[N-isoamyl-N-(tert-butylcarbamoyl)]amino-4-phenyl-2-butanol]	–
51 nM	–	CC[C@H](C)[C@H](NC(=O)[C@@H]1CCCN1)C(=O)N[C@@H](Cc1ccccc1)[C@H](O)CN(CCC(C)C)C(=O)NC(C)(C)C [Example 25, (2R, 3S)-3-(L-prolyl-L-isoleucinyl)amino-1-[N-isoamyl-N-(tert-butylcarbamoyl)]amino-4-phenyl-2-butanol]	–

Compound	IC50 (HIV protease)	EC50 (HIV-1 in CEM cells)	inhibition at 10 µM (HIV protease; @ 10 μM, read-out: inhibition of HIV protease (IC50))
CC(C)CCN(C[C@@H](O)[C@H](Cc1ccccc1)NC(=O)[C@@H](NC(=O)CNC(=O)OC(C)(C)C)C(C)(C)C)C(=O)NC(C)(C)C [Example 17, (2R, 3S)-3-(N-tert-butoxycarbonyl-glycinyl-L-tert-butylglycinyl) amino-1-[N-isoamyl-N-(tert-butylcarbamoyl)]amino-4-phenyl-2-butanol]	10 nM	–	–
